The source of these data is patent publication US12157730B2, “Heteroaryl derivative, method for producing same, and pharmaceutical composition comprising same as effective component” (VORONOI INC., priority 2019, dated 2024).

In one test the test system is Ba/F3 cell naive. The test can be described thus: Ba/F3 cell proliferation suppression, naive. In kind it is cell-based. The settings on record: Mus musculus, BaF3; 72 hours after treatment, CellTiter-Glo. The protocol:
(§1) The following experiment was carried out to evaluate the suppression activity of the compounds according to the present invention against proliferation of Ba/F3 and lung cancer cells which express EGFR mutations.
(§2) Of the cancer cell lines expressing the EGFR gene, A549 was cultured after adding 10% FBS (HyClone) to DMEM (Invitrogen), and RPMI-1640 (Invitrogen) with 10% FBS was used for the other cancer cells. For the Ba/F3 cells, RPMI-1640 with 10% FBS and 5 ng/ml IL-3 (R&D Systems) was used. The transduced Ba/F3 cells were cultured by adding 1 ug/ml puromycin (Invitrogen) to the same medium.
(§3) 24 hours before treatment with the compounds, 3000 to 5000 cells were distributed into each well of a white clear bottom 96 well plate (Corning). The compounds were diluted in dimethylsulfoxide (dilution ratio 3:1; 12 concentrations total) and injected 0.5 ul each for a final concentration of 0.3 nM to 50 um. As for measurement of live cells, 72 hours after treatment with the compounds, a CellTiter-Glo luminescent cell-viability reagent (Promega) was used to store the cells at room temperature for 10 minutes, followed by measurement of luminescence using a reader (SynergyNeo, Biotek). Each test was repeated three times.
(§4) The result was calculated as a cell growth ratio (%) compared to a control. The program GraphPad Prism version 5.0 was used to draw the graphs and calculate the GI50 values.

Test [1] concerns scanMAX kinase panel (EGFR mutant, ERBB2, ERBB4). Briefly: DiscoverX (eurofin) KINOMEscan (scanMAX platform) kinase profiling. Format: binding. The settings on record: for suppression activity against the EGFR mutant and ERBB2 and ERBB4: KINOMEscan scanMAX kinase profiling. The text has this:
It was confirmed that the above example compounds had high selectivity against EGFR series genes. Accordingly, these can be useful in the treating of cancers wherein this kinase is expressed. In particular, as they have substantially outstanding lung cancer cell line proliferation suppression, they can be useful in the treatment of lung cancer, breast cancer, and brain cancer.

Test [2] has as its target T1, Ba/F3 cell EGFR Exon20 ins ASV (Homo sapiens, UniProt P00533, INS769ASV).
T1 construct: expressed in transfected cells; host or cells: Ba/F3
The test can be described thus: Ba/F3 cell proliferation suppression, EGFR Exon20 ins ASV. The settings on record: 72 hours after treatment, CellTiter-Glo. In kind it is cell-based. As to the method: as §1, §2, §3, §4

The subject of the next test is PC9GR. Briefly: Lung cancer cell proliferation suppression, PC9GR. In kind it is cell-based. The settings on record: 72 hours after treatment, CellTiter-Glo. The protocol:
as §1, §2, §3, §4

The target in another test is T2, Ba/F3 cell EGFR L858R (Homo sapiens, UniProt P00533, L858R).
T2 construct: expressed in transfected cells; host or cells: Ba/F3
Briefly: Ba/F3 cell proliferation suppression, EGFR L858R. Format: cell-based. The note with it: 72 hours after treatment, CellTiter-Glo. The protocol:
as §1, §2, §3, §4

The subject of the next test is H1975. The test can be described thus: Lung cancer cell proliferation suppression, H1975. Format: cell-based. The settings on record: Homo sapiens, NCI-H1975; 72 hours after treatment, CellTiter-Glo. As to the method: as §1, §2, §3, §4
Test [3] concerns Ba/F3 cell EGFR Del19/T790M. Briefly: Ba/F3 cell proliferation suppression, EGFR Del19/T790M. Format: cell-based. The settings on record: 72 hours after treatment, CellTiter-Glo. As to the method:
as §1, §2, §3, §4

Test [4] deals with T3, Ba/F3 cell EGFR Exon20 ins NPH (Homo sapiens, UniProt P00533, INS773NPH).
T3 construct: expressed in transfected cells; host or cells: Ba/F3
The test can be described thus: Ba/F3 cell proliferation suppression, EGFR Exon20 ins NPH. The settings on record: for GI50: 72 hours after treatment, CellTiter-Glo; for Ba/F3 (NPH) Activity: GI50 class, Ba/F3 cell line with NPH inserted at Exon20 of EGFR, 72 hours. In kind it is cell-based. The method, boiled down: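 Cells were seeded 24 h before dosing and then treated for 72 hours with compound at final concentrations of 0.3 nM to 50 um. Live cells were measured by CellTiter-Glo luminescence, and GI50 values were derived from growth ratio relative to control across three repeats.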

The next test deals with PC9. The test can be described thus: Lung cancer cell proliferation suppression, PC9. Format: cell-based. The settings on record: Homo sapiens, PC-9; 72 hours after treatment, CellTiter-Glo. The protocol: as §1, §2, §3, §4
In test [5] the target is T4, Ba/F3 cell HER2 Exon20 ins YVMA (Homo sapiens, UniProt P04626, INS775YVMA).
T4 construct: expressed in transfected cells; host or cells: Ba/F3
The test can be described thus: Ba/F3 cell proliferation suppression, HER2 Exon20 ins YVMA. In kind it is cell-based. The note with it: 72 hours after treatment, CellTiter-Glo. The protocol: as §1, §2, §3, §4

For test [6], the target named is T5, Ba/F3 cell EGFR L858R/T790M (Homo sapiens, UniProt P00533, L858R/T790M).
T5 construct: expressed in transfected cells; host or cells: Ba/F3
Briefly: Ba/F3 cell proliferation suppression, EGFR L858R/T790M. Format: cell-based. The settings on record: 72 hours after treatment, CellTiter-Glo. As to the method:
as §1, §2, §3, §4

The target of test [7] is T6, Ba/F3 cell EGFR Exon20 ins SVD (Homo sapiens, UniProt P00533, INS770SVD).
T6 construct: expressed in transfected cells; host or cells: Ba/F3
Briefly: Ba/F3 cell proliferation suppression, EGFR Exon20 ins SVD. In kind it is cell-based. The note with it: 72 hours after treatment, CellTiter-Glo. As to the method: as §1, §2, §3, §4

Test [8] deals with T7, Ba/F3 cell EGFR Exon20 ins FQEA (Homo sapiens, UniProt P00533, INS763FQEA).
T7 construct: expressed in transfected cells; host or cells: Ba/F3
The test can be described thus: Ba/F3 cell proliferation suppression, EGFR Exon20 ins FQEA. The settings on record: 72 hours after treatment, CellTiter-Glo. Format: cell-based. As to the method: as §1, §2, §3, §4

A value given as a limit tells only on which side of the number the result lay.

T4 sequence (P04626 with tags, fused parts or gaps INS775YVMA): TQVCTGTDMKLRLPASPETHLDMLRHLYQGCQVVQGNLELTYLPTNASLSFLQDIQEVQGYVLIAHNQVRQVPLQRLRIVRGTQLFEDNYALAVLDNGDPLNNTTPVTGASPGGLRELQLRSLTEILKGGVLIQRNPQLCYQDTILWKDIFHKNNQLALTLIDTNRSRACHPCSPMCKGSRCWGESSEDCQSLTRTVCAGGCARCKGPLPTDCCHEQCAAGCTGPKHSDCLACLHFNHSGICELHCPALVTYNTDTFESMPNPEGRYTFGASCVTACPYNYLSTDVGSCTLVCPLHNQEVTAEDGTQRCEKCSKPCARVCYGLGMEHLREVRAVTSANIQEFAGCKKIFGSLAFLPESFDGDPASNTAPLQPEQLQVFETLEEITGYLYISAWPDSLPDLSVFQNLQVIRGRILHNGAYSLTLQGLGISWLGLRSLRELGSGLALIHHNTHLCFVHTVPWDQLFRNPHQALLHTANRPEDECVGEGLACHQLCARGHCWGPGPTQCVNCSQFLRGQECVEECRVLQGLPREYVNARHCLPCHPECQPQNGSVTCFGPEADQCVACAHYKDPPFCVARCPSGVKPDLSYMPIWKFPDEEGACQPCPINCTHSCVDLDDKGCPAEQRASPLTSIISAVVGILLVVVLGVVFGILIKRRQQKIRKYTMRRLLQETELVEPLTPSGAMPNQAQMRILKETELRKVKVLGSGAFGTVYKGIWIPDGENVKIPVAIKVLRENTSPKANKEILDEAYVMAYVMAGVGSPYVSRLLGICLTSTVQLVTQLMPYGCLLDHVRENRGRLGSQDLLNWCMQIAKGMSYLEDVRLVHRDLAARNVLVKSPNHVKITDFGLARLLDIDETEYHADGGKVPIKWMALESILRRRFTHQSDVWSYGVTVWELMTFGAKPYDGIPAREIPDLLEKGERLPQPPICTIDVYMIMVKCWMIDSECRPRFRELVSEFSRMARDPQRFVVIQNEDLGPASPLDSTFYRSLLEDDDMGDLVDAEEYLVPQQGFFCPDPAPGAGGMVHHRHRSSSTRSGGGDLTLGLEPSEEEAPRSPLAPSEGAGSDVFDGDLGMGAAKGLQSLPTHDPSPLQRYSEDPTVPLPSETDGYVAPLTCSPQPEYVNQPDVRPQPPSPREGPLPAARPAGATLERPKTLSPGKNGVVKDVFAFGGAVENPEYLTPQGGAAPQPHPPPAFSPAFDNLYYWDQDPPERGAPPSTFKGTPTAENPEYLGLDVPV

With `C=CC(=O)Nc1cc(Nc2cc(N3OCC[C@@H]3c3cc(F)cc(F)c3)ncn2)c(OC)cc1N1CC[C@@H](N(C)C)C1` [Example 242, N-(5-((6-((R)-3-(3,5-difluorophenyl)isoxazolidine-2-yl)pyrimidine-4-yl)amino)-2-((R)-3-(dimethylamino)pyrolidine-1-yl)-4-methoxyphenyl) acrylamide], the GI50 with Ba/F3 cell naive was 0.5 to 5 µM; in test [2], < 0.05 µM; with PC9GR, 23 nM; on Ba/F3 cell EGFR L858R, < 0.05 µM; in the test on H1975 it was 4 nM; in test [3] it was 0.05 to 0.5 µM. The GI50 in [4] is < 0.05 µM; in the test with PC9, 1 nM; in [5], < 0.05 µM; in test [6] it was < 0.05 µM; in test [7] it was < 0.05 µM; in test [8], < 0.05 µM. Besides, the “suppression activity against the EGFR mutant and ERBB2 and ERBB4” value (“suppression activity” below) in test [1] is listed as “high suppression activity”. Further, the “Ba/F3 (NPH) Activity” value in [4] is recorded as “A (GI50 < 50 nM)”.

As to `C=CC(=O)Nc1cc(Nc2cc(N3OCC[C@@H]3c3cc(F)cc(F)c3)ncn2)c(OC)cc1N1CCC(N2CCN(CC)CC2)CC1` [Example 236, N-(5-((6-((R)-3-(3,5-difluorophenyl)isoxazolidine-2-yl)pyrimidine-4-yl)amino)-2-(4-(4-ethylpiperazine-1-yl)piperidine-1-yl)-4-methoxyphenyl) acrylamide], the GI50 in the test on Ba/F3 cell naive was 0.5 to 5 µM; in [2] it was < 0.05 µM; with PC9GR it was 7 nM; on Ba/F3 cell EGFR L858R it was < 0.05 µM; in the test with H1975 it was 1 nM; in test [3], < 0.05 µM. Further, the 50% growth inhibitory concentration (GI50) is < 0.05 µM in [4]; 1 nM with PC9; < 0.05 µM in test [5]; < 0.05 µM in test [6]; < 0.05 µM in test [7]; < 0.05 µM in test [8]. Also, the “% inhibition of scanMAX Kinase profiling” value in test [1] (EGFR(E746-A750del)) turned out to be 89%; in test [1] (EGFR(G719C)), 100%; in test [1] (EGFR(G719S)) it was 100%; in test [1] (EGFR(L747-E749del, A750P)), 98%; in test [1] (EGFR(L747-T751del.Sins)), 100%; in test [1] (EGFR(L858R)) it was 100%. Further, the “% inhibition of scanMAX Kinase profiling” value amounted to 98% in test [1] (EGFR(L858R.T790M)); 98% in test [1] (EGFR(L861q)); 89% in [1] (EGFR(S752-I759del)); 100% in test [1] (EGFR(T790M)); 100% in [1] (ERBB2); 100% in test [1] (ERBB4). In [1], the “suppression activity” value is “high suppression activity”. Moreover, the “Ba/F3 (NPH) Activity” value in test [4] is “A (GI50 < 50 nM)”.

For the molecule `C=CC(=O)Nc1cc(Nc2cc(N3OCC[C@@H]3c3cc(F)cc(F)c3)ncn2)c(OC)cc1N1CCC(N2C[C@@H]3C[C@H]2CO3)CC1` [Example 239, N-(2-(4-((1S,4S)-2-oxa-5-azabicyclo[2.2.1]heptane-5-yl)piperidine-1-yl)-5-((6-((R)-3-(3,5-difluorophenyl)isoxazolidine-2-yl)pyrimidine-4-yl)amino)-4-methoxyphenyl) acrylamide], the GI50 in the test with Ba/F3 cell naive is ≥ 5 µM; in test [2], < 0.05 µM; in the test on PC9GR, 5 nM; at Ba/F3 cell EGFR L858R, < 0.05 µM; in the test on H1975, 1 nM; in [3] it was < 0.05 µM. Also, the 50% growth inhibitory concentration (GI50) is < 0.05 µM in [4]; 1 nM with PC9; < 0.05 µM in test [5]; < 0.05 µM in [6]; < 0.05 µM in test [7]; < 0.05 µM in test [8]. The “% inhibition of scanMAX Kinase profiling” value in [1] (EGFR(E746-A750del)) is 96%; in [1] (EGFR(G719C)), 100%; in test [1] (EGFR(G719S)), 99%; in test [1] (EGFR(L747-E749del, A750P)) it was 95%; in test [1] (EGFR(L747-T751del.Sins)), 93%; in test [1] (EGFR(L858R)), 100%. The “% inhibition of scanMAX Kinase profiling” value in test [1] (EGFR(L858R.T790M)) is 98%; in test [1] (EGFR(L861q)) it was 97%; in test [1] (EGFR(S752-I759del)), 82%; in test [1] (EGFR(T790M)) it was 100%; in [1] (ERBB2), 100%; in test [1] (ERBB4) it was 100%. For the same molecule, in test [1], the “suppression activity” value is given as “high suppression activity”. In addition, the “Ba/F3 (NPH) Activity” value in test [4] was “A (GI50 < 50 nM)”.

Regarding `C=CC(=O)Nc1cc(Nc2cc(N3OCC[C@@H]3c3cc(F)cc(F)c3)ncn2)c(OC)cc1N1CCC(N2C[C@H]3C[C@@H]2CO3)CC1` [Example 238, N-(2-(4-((1R,4R)-2-oxa-5-azabicyclo[2.2.1]heptane-5-yl)piperidine-1-yl)-5-((6-((R)-3-(3,5-difluorophenyl)isoxazolidine-2-yl)pyrimidine-4-yl)amino)-4-methoxyphenyl) acrylamide], the concentration for 50% growth inhibition (GI50) with Ba/F3 cell naive was 0.5 to 5 µM; in test [2], < 0.05 µM; with PC9GR, 4 nM; on Ba/F3 cell EGFR L858R, < 0.05 µM; in the test with H1975, 1 nM; in test [3] it was < 0.05 µM. Further, the GI50 in [4] is < 0.05 µM; with PC9, 1 nM; in test [5] it was < 0.05 µM; in test [6], < 0.05 µM; in test [7], < 0.05 µM; in [8], < 0.05 µM. In addition, the “% inhibition of scanMAX Kinase profiling” value in test [1] (EGFR(E746-A750del)) worked out at 100%; in test [1] (EGFR(G719C)) it was 100%; in test [1] (EGFR(G719S)), 100%; in [1] (EGFR(L747-E749del, A750P)), 91%; in test [1] (EGFR(L747-T751del.Sins)), 92%; in [1] (EGFR(L858R)) it was 99%. For the same molecule, the “% inhibition of scanMAX Kinase profiling” value is listed as 98% in test [1] (EGFR(L858R.T790M)); 98% in test [1] (EGFR(L861q)); 91% in [1] (EGFR(S752-I759del)); 100% in [1] (EGFR(T790M)); 100% in [1] (ERBB2); 100% in test [1] (ERBB4). In test [1], the “suppression activity” value is given as “high suppression activity”. Also, the “Ba/F3 (NPH) Activity” value in test [4] is reported as “A (GI50 < 50 nM)”.
